Test results from patent US9480688B2, “Pheromone compositions and their use to modify behavior in different vertebrate species” (priority 2011, dated 2016).

Key:
[1] = tested on: barking/jumping dogs; experiment: Aerosol spray test on barking/jumping dogs in a kennel; assay type: in vivo, dog; details: for % Effective (no barking/jumping within 1 minute): 6 dogs
Procedure: An aerosol spray composition comprising Androstenone solution was prepared in accordance with Example 1, but was then diluted in isopropyl alcohol to obtain a 1:1,000 dilution of the original concentration. The purpose of the dilution was to mask the odor of the Androstenone, which can be smelled by humans at high concentrations. The spray solution was placed in a metal aerosol can pressurized with propane. A noise making device was also added to the aerosol can. The propellant, when forced through small holes, caused a sound that exceeded 70 decibels.
The efficacy of an aerosol spray composition containing Androstenone was tested in a commercial research facility housing a large number of dogs. A designated person walked the aisles of the kennel with a calm dog on a leash in order to identify those dogs that met the criteria of barking/jumping. The calm dog on the leash was walked in the center aisle between kennels and also sat outside the kennels. To qualify as a test subject, a dog had to repeatedly jump and bark while the calm dot and the person were in the aisle. A total of 15 dogs were chosen as test subjects.
The dogs were separated into two treatment groups. […] The dogs in treatment group #2 were treated, when observed to be engaging in barking/jumping behavior, with a loud spray canister to which the diluted spray composition containing Androstenone had been added. The test period was for 1 minute.

[2] = tested on: head shy horses; experiment: Aerosol spray test on head shy horses, scored 1 through 5; assay type: in vivo, horse; details: for Did not work / Partially worked / Worked well: % of horses
Procedure: The spray solution was placed in a pressurized metal aerosol can. In one group of aerosol cans, a noise making device was also added to the aerosol can. The propellant, when forced through small holes upon pressing the nozzle, caused a sound that exceeded 70 decibels. In a second group of aerosol cans, the noise making device was not added to the can, such that when the spray composition was pumped, no noise was made.
The efficacy of an aerosol spray composition containing Androstenone was tested using thirteen adult horses, all of which were enrolled in this study after being evaluated and categorized as head shy and hard to handle (i.e., observed to move their heads away from the handler when the handler attempted to touch their heads with his hand or a halter).
The thirteen horses were sorted into two treatment groups. One group (Group 1) of 10 horses received the Androstenone spray composition outlined in Table 4 and control (CON isopropyl alcohol) with noise (n=10), while the second group (Group 2) received the Androstenone spray and control without noise (n=3).
In each group, the control composition was administered to the horses first and then the Androstenone spray was administered to the horses the following day immediately before the handler attempted to touch their ears and heads. The horses' behavior was then recorded and evaluated after each administration. The horses were given a numerical score of 1 through 5.

[3] = tested on: weaning foals; experiment: Ointment test on weaning foals, behavioral observations; assay type: in vivo, horse; parameters: increase of vocalizations compared to control treatment: concentration or dose not given beside the values
Procedure: A total of 20 foals divided into two groups (Group A, n=10; Group B, n=10) were weaned in pens of similar size and at the same time of the day (9 am), and were evaluated using a control and pheromone compositions. All horses were between 5 and 6 months of age and mixed breeds, primarily quarter horses. An ointment form of the composition comprising Androstenone was prepared in accordance with Table 7 for administering to the horses in this study.
An ointment composition containing a different pheromone, 2-methylbut-2-enal (RP, 1 mg/mL), was also prepared for administration in a comparison study. An ointment containing no pheromone was prepared and used as control (CON). In group A, 5 foals were used for the control treatment, 3 foals were used for the RP treatment, and 2 foals were used for the Androstenone treatment. In group B, 3 foals were used for the control treatment, 3 foals were used for the RP treatment, and 4 foals were used for the Androstenone treatment. As such, a total of 8 foals were used for the control treatment, 6 foals were used for the RP treatment, and 6 foals were used for the Androstenone treatment in this entire study. Both of the pheromone formulations and the control were applied to each nostril. Control treatments were administered first to prevent any cross contamination to horses during day two.
Behavioral observations were taken during the first 10 minutes (Group A and Group B) and then for four hours (Group B only) after the mares were separated from their foals. Foal behavior was recorded every minute during the first hour (or 10 minutes) and every 5 minutes for the remaining 3 hours of the study for Group B.
Behaviors were not mutually exclusive.
The number of shocks received by the electric fence (as foals tried to return to their mare) and vocalizations were recorded continuously. The total number of observations of each defined behaviors over the first 4 hours in Group B is presented in Table 9, which also provides the percentage of each behavior over the total number of recorded number of behaviors.

[4] = tested on: anxious dogs; experiment: Heart rate of anxious dogs after Androstenone spray (telemetry); assay type: in vivo, dog; details: four anxious dogs, 10 minutes following spray with about 0.1 μg/mL Androstenone in isopropyl alcohol
Procedure: A study was conducted to determine whether dogs' heart rate increased following application with an aerosol spray containing Androstenone.
An aerosol spray was prepared which contained about 0.1 μg/mL of Androstenone and isopropyl alcohol using the formulation provided in Example 1.
Four dogs determined to be “anxious” were fit with telemetry jackets and transmitters in order to continually monitor heart rate. Dot heart rates were measured for 10 minutes before treatment, 10 minutes following treatment with a control spray (isopropyl alcohol only), and 10 minutes following treatment with the test spray containing Androstenone and isopropyl alcohol.

[5] = tested on: younger pigs; details: cited from earlier work
[6] = Group 1, spray with noise, n=10
[7] = Group 1, spray with noise, n=10, listed as Pheromone
[8] = Group 2, no noise, n=3, listed as Pheromone
[9] = Group B, first 4 hours after weaning
[10] = Group B, first 4 hours after weaning, ointment in each nostril
[11] = first 10 minutes post weaning (n = 20)
[12] = first 10 minutes post weaning, Group A and Group B (n = 20)

## C[C@]12CCC(=O)C[C@@H]1CC[C@@H]1[C@@H]2CC[C@]2(C)C=CC[C@@H]12 [Androstenone, 5-α-androst-16-en-3-one]
[1]; Group 2: loud spray plus Androstenone, aerosol diluted 1:1,000 in isopropyl alcohol, applied in facial/snout region
  % Effective (no barking/jumping within 1 minute): 100%
[1]; Group 3: placebo first, then Androstenone spray (re-spray of dogs not responding to placebo)
  % Effective (no barking/jumping within 1 minute): 83.5%
[1]; all dogs that received the Androstenone spray (11 of 12 responded)
  % Effective (no barking/jumping within 1 minute), overall Androstenone efficacy: 91.7%
[1]; diluted Androstenone spray, dogs
  observed effect on barking/jumping: immediate cessation of barking/jumping
[1]; the one dog that did not respond by the 60 second criterion, after Androstenone spray
  time barking/jumping stopped before barking resumed: 40 s
[2]; [6]
  horses showing improvement, either fully or partially, in head shy behavior: 80%
  Did not work: 20%
  Partially worked: 20%
  Worked well: 60%
[2]; [7]
  Did not work: 20%
  Partially worked: 20%
  Worked well: 60%
[2]; Group 1, spray with noise, n=10, score 1 (little to no effect) to 5 (easier to handle)
  Avg. Score: 3.9
[2]; Group 2, no noise, n=3
  horses showing improvement, either fully or partially, in head shy behavior: 100%
  Did not work: 0%
  Partially worked: 33%
  Worked well: 66%
[2]; [8]
  Partially worked: 33%
  Worked well: 67%
[2]; Group 2, spray with no noise, n=3, score 1 to 5
  Avg. Score: 3.9
[3]; 4 hour period after weaning
  reduction of head shaking compared to control ointment: 100%
  reduction of pacing compared to control ointment: 100%
  reduction of trotting/running compared to control ointment: 100%
[3]; 4 hour period after weaning, % of observations eating hay
  increase of feeding behavior compared to control: 98%
[3]; [9]
  Percent of observations: defecation: 0.0%
  Percent of observations: drink: 0.0%
  Percent of observations: feeding: 11.3%
  Percent of observations: fight: 0.0%
  Percent of observations: head shake: 0.0%
  Percent of observations: interact: 0.8%
  Percent of observations: lying: 0.0%
  Percent of observations: pace: 0.0%
  Percent of observations: paw: 0.0%
  Percent of observations: shock: 0.8%
  Percent of observations: stand: 58.8%
  Percent of observations: trot: 0%
  Percent of observations: vocal: 19.0%
  Percent of observations: walk: 9.2%
[3]; [10]
  Total observations: defecation: 0
  Total observations: drink: 0
  Total observations: feeding: 27
  Total observations: fight: 0
  Total observations: head shake: 0
  Total observations: interact: 2
  Total observations: lying: 0
  Total observations: pace: 0
  Total observations: paw: 0
  Total observations: shock: 2
  Total observations: stand: 141
  Total observations: trot: 0
  Total observations: vocal: 46
  Total observations: walk: 22
[3]; Group B, first 4 hours after weaning, listed as Pheromone A
  Percent of observations: trot: 0.0%
[3]; [11]
  Percent of observations: defecation: 0.0%
  Percent of observations: drink: 0.0%
  Percent of observations: eat: 0.0%
  Percent of observations: fight: 0.0%
  Percent of observations: head shake: 0.0%
  Percent of observations: interact: 0.0%
  Percent of observations: lying: 0.0%
  Percent of observations: pace: 0.0%
  Percent of observations: paw: 0.0%
  Percent of observations: shock: 0.0%
  Percent of observations: stand: 81.8%
  Percent of observations: trot: 0.0%
  Percent of observations: vocal: 37.1%
  Percent of observations: walk: 18.2%
[3]; [12]
  Total observations: defecation: 0
  Total observations: drink: 0
  Total observations: eat: 0
  Total observations: fight: 0
  Total observations: head shake: 0
  Total observations: interact: 0
  Total observations: lying: 0
  Total observations: pace: 0
  Total observations: paw: 0
  Total observations: shock: 0
  Total observations: stand: 18
  Total observations: trot: 0
  Total observations: vocal: 13
  Total observations: walk: 4
[4]
  effect on heart rate: no significant effect
[5]
  effect on aggressive behavior: reduces aggressive behavior

## CC=C(C)C=O [RP, 2-methylbut-2-enal, reference compound]
[3]; 4 hour period after weaning
  increase of vocalizations compared to control treatment: 372%
[3]; 4 hour period after weaning, compared to control
  effect on feeding (eating hay): decreased
[3]; [9]
  Percent of observations: defecation: 0.3%
  Percent of observations: drink: 0.3%
  Percent of observations: feeding: 2.9%
  Percent of observations: fight: 0.0%
  Percent of observations: head shake: 0.1%
  Percent of observations: interact: 0.0%
  Percent of observations: lying: 0.0%
  Percent of observations: pace: 1.4%
  Percent of observations: paw: 0.0%
  Percent of observations: shock: 1.0%
  Percent of observations: stand: 30.8%
  Percent of observations: trot: 3.1%
  Percent of observations: vocal: 58.6%
  Percent of observations: walk: 1.4%
[3]; [10]
  Total observations: defecation: 2
  Total observations: drink: 2
  Total observations: feeding: 21
  Total observations: fight: 0
  Total observations: head shake: 1
  Total observations: interact: 0
  Total observations: lying: 0
  Total observations: pace: 10
  Total observations: paw: 0
  Total observations: shock: 7
  Total observations: stand: 220
  Total observations: trot: 22
  Total observations: vocal: 422
  Total observations: walk: 10
[3]; first 10 minutes after weaning
  increase of vocalizations over controls: 42 fold
[3]; [11]
  Percent of observations: defecation: 0.0%
  Percent of observations: drink: 0.0%
  Percent of observations: eat: 0.0%
  Percent of observations: fight: 0.0%
  Percent of observations: head shake: 0.0%
  Percent of observations: interact: 0.0%
  Percent of observations: lying: 0.0%
  Percent of observations: pace: 6.1%
  Percent of observations: paw: 0.0%
  Percent of observations: shock: 3.3%
  Percent of observations: stand: 24.2%
  Percent of observations: trot: 66.7%
  Percent of observations: vocal: 69.7%
  Percent of observations: walk: 3.0%
[3]; [12]
  Total observations: defecation: 0
  Total observations: drink: 0
  Total observations: eat: 0
  Total observations: fight: 0
  Total observations: head shake: 0
  Total observations: interact: 0
  Total observations: lying: 0
  Total observations: pace: 2
  Total observations: paw: 0
  Total observations: shock: 4
  Total observations: stand: 8
  Total observations: trot: 22
  Total observations: vocal: 85
  Total observations: walk: 1
